From US20230331604A1, “METHOD FOR THE ELECTROCHEMICAL CONTROL OF THE PHOTOSYNTHETIC METABOLISM OF PURPLE NON-SULFUR BACTERIA AND REDOX MEDIATORS THEREOF” (Zuccato HC S.r.l., priority 2020, published 2023)

Tests used:
[1] = equilibrium potential of the redox mediator; type: physicochemical; details: vs SCE reference electrode
Excerpt: This is enabled by the use of suitable fat-soluble redox mediators ([2], [3]) capable of permeabilizing the bacterial membrane and entering the cytoplasm, in order to alter the oxidation state of the disulfide bond present in type A thioredoxins, as well as by appropriate light irradiation.

[2] = system: Rhodobacter sphaeroides (ATCC 55304); experiment: bacteriochlorophyll synthesized by Rhodobacter sphaeroides under electrochemical control vs aerobic growth (absorption spectra); type: cell-based; details: 50 nM safranin, acetone/methanol extract, absorbance normalized to 660 nm
Description: A homemade potentiostat was used as an external source of free energy, capable of providing a current of up to 100 mA and keeping the potential constant within the range of −2 V÷+2 V).
The materials of the electrodes used are: • Working electrode: stainless steel grid with 1 mm mesh spacing. • Counter electrode: graphite bars (0.8 cm in diameter, 30 cm long) • Reference electrode: (SCE)
Safranin T, molecular mass equal to 350.85. (Fluka) at a concentration equal to 50 nM, was used as redox mediator in the cell.
The solution inside the fermenter/reactor was kept under mild stirring to facilitate the recirculation of the redox mediator molecules.

Cc1cc2nc3cc(C)c(N)cc3[n+](-c3ccccc3)c2cc1N.[Cl-] [Safranin T, safranin T]
equilibrium potential [1]: about −540 mV
intensity of bacteriochlorophyll absorption bands compared to the corresponding aerobic population [2]: almost tripled
